The record followed here is patent publication US11299519B2, “Host cells and methods using a repressor polypeptide and an inducible promoter for gene expression” (The Regents of the University of California, priority 2015, dated 2022).

One assay deals with Eil-promoter. Put plainly: Induction of Eil-promoter (EilR-regulated, reporter gene) by hydrophobic cations. The class given is cell-based, E. coli. The settings on record: preliminary results for the leuco-form. The source says:
A series of EilR-regulated promoters have been identified by creating a library that contains an eil-operator and randomized core promoter sequences coupled to a reporter gene. […] Subsequent optimizations have led to several Eil-promoters with improved properties.
The Eil- or Qac-promoters are useful as tools for monitoring real time oxidative stress. […] An Eil-promoter or Qac-promoter coupled with a reporter gene can serve as a signal-amplifying sensor for real time in vivo oxidative stress, which could be useful to monitor and understand physiological stress reactions. Similarly, heme catalyzes the oxidation of the colorless leucocrystal violet to its purple cation by reducing hydrogen peroxide. This colorful radical reaction is utilized in forensics to uncover removed blood stains. Crystal violet induces Eil-biosensors at concentrations that are much lower than the eye can detect. Such a sensor could be a sensitive tool for blood detection in forensic analyses.
Numbers in brackets indicate the concentration applied for induction (in μM).

The test system of another assay is SmvR. The assay can be described thus: RFP expression from an Eil-promoter regulated by EilR homologue SmvR. The settings on record: in E. coli; eilO consensus operator. It counts as cell-based, Salmonella typhimurium. The source says:
(§1) The EilR homologues SmvR (from Salmonella typhimurium) and KmrR (from Klebsiella BRL6-2) regulate RFP expression from an Eil-promoter in E. coli. Like EilR, these repressors bind to the eilO consensus operator and are induced e.g. by crystal violet.

For the next assay, the system named is KmrR. The assay can be described thus: RFP expression from an Eil-promoter regulated by EilR homologue KmrR. The class given is cell-based, Klebsiella BRL6-2. The settings on record: in E. coli; eilO consensus operator.
Text: as §1

The test system of another assay is p1-promoter. The assay can be described thus: RFP expression from the p1-promoter in various bacteria. The class given is cell-based, Three different gram-negative bacteria. The settings on record: same plasmid in all strains (BBR origin of replication). From the text: All strains contain the same plasmid (BBR origin of replication).
The functionality of Eil-promoters is not restricted to E. coli and offers an expression platform in various host organisms. […] In addition to bacterial promoters, the eil operators can be used to control expression from phage promoters such as T7. […] RFP was expressed from a T7 promoter controlled either by an IPTG-inducible lac operator or an acridine orange-inducible eil operator. The chromosomal T7-RNA polymerase was expressed from a Lac-promoter in both cases (in E. coli BL21-DE3). In the future, T7 RNA-polymerase expression could also be controlled by an Eil-promoter. […] All strains contain the same plasmid (BBR origin of replication).

Turning to `CN(C)c1ccc(C(=C2C=CC(=[N+](C)C)C=C2)c2ccc(N(C)C)cc2)cc1` [crystal violet], the “induction of Eil-promoters” value with Eil-promoter is recorded as “induces Eil-promoters at nanomolar concentrations”. Also, the “induction of SmvR-regulated RFP expression from an Eil-promoter” value with SmvR was “induced”. Moreover, the “induction of KmrR-regulated RFP expression from an Eil-promoter” value in the assay with KmrR is recorded as “induced”.

On to `CN(C)c1ccc2cc3ccc(N(C)C)cc3nc2c1` [acridine orange], for which the “RFP expression from the p1-promoter on induction” value in the assay with p1-promoter was “express RFP from the p1-promoter”.

For the compound `CN(C)c1ccc(C(c2ccc(N(C)C)cc2)c2ccc(N(C)C)cc2)cc1` [leucocrystal violet], in the assay on Eil-promoter, the “induction of Eil-promoters” value was “does not cause induction”.
